Assay [1] is described as follows: Total antioxidant capacity (TAC), phosphomolybdenum method. As to conditions: samples at 100 µg/mL; mean ± SE, n = 3. On the procedure: 1. Preparation of SB-CuO-NPs
The copper oxide nanoparticles (CuO-NPs) were biosynthesized using a concentrated anhydrous copper sulfate solution (1 mM) as a metal precursor based […]
dissolved in 100 ml of deionized water to form a 0.1 M concentration. The Schiff base (SB) was mixed with the metal solution in a ratio of 4:1. The SB-CuO-NPs was monitored by a color change. They were dried at 80 °C after centrifuging the colloidal solution at 4000 rpm for 15 min.
2. Characterization of the SB-CuO-NPs
The spectra of the SB-CuO-NPs were characterized using a Shimadzu UV-VIS recording spectrophotometer UV-240 after diluting the samples (10-fold) with deionized water at λ 200 - 800 nm. Their surface zeta potentials were measured using the laser zeta meter (Malvern Zetasizer 2000, Malvern, Worcestershire, UK) following […]
Moreover, their average hydrodynamic sizes were determined using the laser diffraction method with multiple scattering techniques employing dynamic light scattering (DLS) (Malvern Zetasizer Nano ZS, Malvern Instruments Ltd., Malvern, United Kingdom) (Murdock et al., 2008). […]
All biological activities were assessed in the prepared samples at equal concentrations (100 µg/mL). […]
After cooling to room temperature, the absorbance was measured at 695 nm against the blank. […] The antioxidant capacity was expressed as mg gallic acid equivalent per gram weight. […]

Assay [2] can be described thus: ABTS radical scavenging. The note with it: mean ± SE, n = 3. As to the method:
The procedure for the 2,2'-azinobis-(3-ethylbenzothiazoline-6-sulfonic acid) (ABTS) […]
solution (7 mM) and potassium persulfate solution (2.4 mM). The working solution was prepared by mixing the two stock solutions in equal quantities and allowing them to react at room temperature in a dark place for 14 hours. The solution was then diluted by mixing 1 mL of ABTS solution with 60 mL of methanol to obtain an absorbance of 0.706 ± 0.01 units at 734 nm using a spectrophotometer. Fresh ABTS solution was prepared for each assay. The tested samples (at each concentration) were allowed to react with 1 mL of the ABTS solution, and the absorbance was taken at 734 nm after 7 minutes using a spectrophotometer. […]

Assay [3] can be described thus: NO radical scavenging. As to conditions: mean ± SE, n = 3. On the procedure: The in vitro biological applications of the SB and SB-CuO-NPs, including antioxidant, scavenging, anti-diabetic, anti-Alzheimer, anti-arthritic, anti-inflammatory, cytotoxic effects, and enzyme inhibition, were assessed using methods described in the literature (See Supplementary Materials).
During the current study, the free radical scavenging capacity of SB-CuO-NPs, SB, and ascorbic acid (positive control) was evaluated using the DPPH, ABTS, and NO radical methods. The scavenging activity is used to predict antioxidant efficacy, a mechanism in which antioxidants inhibit lipid oxidation. The lower IC50 value indicates a stronger ability of the SB-CuO-NPs to act as radical scavengers, whereas the higher IC50 value indicates a lower scavenging activity. […] The lower the IC50 value, the greater the antioxidant activity.

In assay [4] the test system is caspase-3 in HepG-2 cells. The experiment in a line: Caspase-3 ELISA in treated HepG-2 cells. The format is cell-based, human. The note with it: HepG-2 cells treated at the IC50 value, mean ± SE, n = 3. On the procedure: Following the treatment of HepG-2, Caco-2, A549, and BJ-1 cells with the SB-CuO-NPs at their respective IC50 values, as illustrated in Figure 9 and detailed in Table 5, an assessment of the activities of the caspase-3 and Bcl-2 enzymes was conducted in the treated cells. […] This mechanism ultimately triggers apoptosis. Additionally, the increased activity of caspase-3 results in a decrease in the expression of cyclin D1 and CDK-2 mRNA, thereby promoting the arrest of the G1 phase of the cell cycle. Othman et al. further noted that the biosynthesized M-NPs facilitate apoptosis by inhibiting the expression of the PI3K/AKT and Ras/Raf/ERK protein signaling pathways.
Invitrogen Corporation, following the manufacturer's instructions.
On the technique in general: An ELISA detects its analyte on a solid surface through an enzyme-linked reagent.

SMILES strings stand for the structures.

Take `Cc1nn(-c2ccccc2)c(Cl)c1C=NN=C1C(=O)Nc2ccccc21` [SB]: the “Antioxidant activity TAC” value in assay [1] came out at 65.41 ± 0.19 mg gallic acid/g. For the same compound, the “Scavenging activity ABTS Inhib. (%)” value in assay [2] (at 100 µg/mL) stood at 48.29 ± 0.18%. For the same compound, the “Scavenging activity ABTS IC50” value in assay [2] came to 5.40 ± 0.06 µg/mL. In addition, in assay [3] (at 100 µg/mL), the “Scavenging activity NO Inhib. (%)” value turned out to be 36.79 ± 0.18%. Moreover, the “Scavenging activity NO IC50” value in assay [3] was determined as 7.69 ± 0.04 µg/mL. The compound further came in with a Caspase-3 in assay [4] of 165.55 ± 1.29 pg/mL.

For the origin of these results see article PMC11859031, “Assessment of the In Vitro Biological Activities of Schiff Base-Synthesized Copper Oxide Nanoparticles as an Anti-Diabetic, Anti-Alzheimer, and Anti-Cancer Agent” (Pharmaceutics, 2025).
